Measurements published in the supplement of paper PMC13380429.

Experiments:
[1] = tested on: A549-ACE2 infected with SARS-CoV-2; assay: cell count relative to DMSO; higher = less toxic; details: 24 h
Caco-2 [2] = assay: cell viability relative to DMSO; higher = less toxic; details: 72 h
Calu-3 [3] = assay: as above; details: 72 h
HepG2 [4] = assay: as above; details: 72 h
U2OS [5] = assay: as above; details: 72 h
Vero E6 [6] = assay: as above; details: 72 h
[7] = tested on: A549-ACE2 infected with SARS-CoV-2; assay: SARS-CoV-2 infection rate relative to DMSO; higher = more infection; details: 24 h
A549-ACE2 [8] = assay: drug-induced phospholipidosis relative to tamoxifen; higher = more phospholipidosis
[9] = tested on: A549-ACE2 infected with SARS-CoV-2; assay: morphology score (similarity to uninfected cells); higher = more like uninfected cells; details: 24 h
Caco-2 [10] = assay: relative viability EC50 (midpoint between 100% and the lowest measured viability); higher = less toxic; details: 72 h
Calu-3 [11] = assay: as above; details: 72 h
HepG2 [12] = assay: as above; details: 72 h
U2OS [13] = assay: as above; details: 72 h
Vero E6 [14] = assay: as above; details: 72 h
Caco-2 [15] = assay: drug sensitivity score (DSS) for viability; higher = more toxic; extreme values may be limits of the assay; details: 72 h
Calu-3 [16] = assay: as above; details: 72 h
HepG2 [17] = assay: as above; details: 72 h
U2OS [18] = assay: as above; details: 72 h
Vero E6 [19] = assay: as above; details: 72 h
A549-ACE2 [20] = assay: phospholipidosis EC50; higher = less potent phospholipidosis inducer

CC(C)COc1ccc(CNC(=O)N(Cc2ccc(F)cc2)C2CCN(C)CC2)cc1 [pimavanserin]
Details	SARS-CoV-2 infection rate, [7] [%]	cell count, [1] [%]	cell viability, Caco-2 [2] [%]	cell viability, Calu-3 [3] [%]	cell viability, HepG2 [4] [%]	cell viability, U2OS [5] [%]	cell viability, Vero E6 [6] [%]	morphology score, [9]
1 nM	–	–	105	100	102	99.4	101	–
10 nM	–	–	95.7	97	104	99.2	101	–
100 nM	–	–	105	95.1	104	92.2	108	–
0.3 µM	100	101	–	–	–	–	–	-0.07
1000 nM	–	–	110	95.2	103	99.2	99.4	–
10000 nM	–	–	85.7	86.2	86.2	92	98.4	–

A549-ACE2 [8], 0.3 µM
Details	drug-induced phospholipidosis [%]
24 h	4.68
48 h	2.24
72 h	1.32

Details	drug sensitivity score	relative viability EC50 [µM]
Caco-2 [10]	–	> 10
Caco-2 [15]	0.1	–
Calu-3 [11]	–	> 10
Calu-3 [16]	0.1	–
HepG2 [12]	–	> 10
HepG2 [17]	0.1	–
U2OS [13]	–	> 10
U2OS [18]	0	–
Vero E6 [14]	–	> 10
Vero E6 [19]	0	–

CCCC[C@@H](C=O)NC(=O)[C@H](CC(C)C)NC(=O)OCc1ccccc1 [calpeptin]
Details	SARS-CoV-2 infection rate, [7] [%]	cell count, [1] [%]	cell viability, Caco-2 [2] [%]	cell viability, HepG2 [4] [%]	cell viability, U2OS [5] [%]	cell viability, Vero E6 [6] [%]	morphology score, [9]
1 nM	–	–	96.8	99.8	104	97.5	–
10 nM	–	–	97	95.1	98.8	99.6	–
100 nM	–	–	100	98.2	103	102	–
0.3 µM	56	114	–	–	–	–	0.69
1000 nM	–	–	94.5	98.3	95.8	98	–
3 µM	29	120	–	–	–	–	0.91
10 µM	13	123	–	–	–	–	0.9
10000 nM	–	–	97.7	92.2	96.4	92.1	–
30 µM	8	118	–	–	–	–	0.77

drug-induced phospholipidosis [%], A549-ACE2 [8]
Details	0.3 µM	0.833333 µM	3.33333 µM	6.66667 µM	10 µM	30 µM
24 h	5.73	6.24	10.6	21.3	26.2	64.5
48 h	3.11	2.48	7.49	16.9	26.6	77.2
72 h	4.92	2.16	4.48	13.5	24.6	87.8

Details	drug sensitivity score	relative viability EC50 [µM]
Caco-2 [10]	–	> 10
Caco-2 [15]	0	–
HepG2 [12]	–	> 10
HepG2 [17]	0	–
U2OS [13]	–	> 10
U2OS [18]	0	–
Vero E6 [14]	–	> 10
Vero E6 [19]	0	–

CN(C)CCOc1ccc(/C(=C(/CCCl)c2ccccc2)c2ccccc2)cc1 [toremifene]
Details	SARS-CoV-2 infection rate [%]	cell count [%]	cell viability [%]	morphology score	phospholipidosis EC50 [µM]
A549-ACE2 [20], 24 h	–	–	–	–	15
A549-ACE2 [20], 48 h	–	–	–	–	1.48
A549-ACE2 [20], 72 h	–	–	–	–	1.65
Caco-2 [2], 1 nM	–	–	100	–	–
Caco-2 [2], 10 nM	–	–	98.1	–	–
Caco-2 [2], 100 nM	–	–	105	–	–
Caco-2 [2], 1000 nM	–	–	92.3	–	–
Caco-2 [2], 10000 nM	–	–	39.8	–	–
Calu-3 [3], 1 nM	–	–	90.6	–	–
Calu-3 [3], 10 nM	–	–	106	–	–
Calu-3 [3], 100 nM	–	–	104	–	–
Calu-3 [3], 1000 nM	–	–	93.1	–	–
Calu-3 [3], 10000 nM	–	–	15.8	–	–
HepG2 [4], 1 nM	–	–	105	–	–
HepG2 [4], 10 nM	–	–	82.5	–	–
HepG2 [4], 100 nM	–	–	104	–	–
HepG2 [4], 1000 nM	–	–	103	–	–
HepG2 [4], 10000 nM	–	–	29.9	–	–
U2OS [5], 1 nM	–	–	97.6	–	–
U2OS [5], 10 nM	–	–	94.9	–	–
U2OS [5], 100 nM	–	–	99.4	–	–
U2OS [5], 1000 nM	–	–	91.3	–	–
U2OS [5], 10000 nM	–	–	66.7	–	–
Vero E6 [6], 1 nM	–	–	98.4	–	–
Vero E6 [6], 10 nM	–	–	101	–	–
Vero E6 [6], 100 nM	–	–	90.4	–	–
Vero E6 [6], 1000 nM	–	–	95.3	–	–
Vero E6 [6], 10000 nM	–	–	53.6	–	–
[1], 0.1 µM	–	100	–	–	–
[1], 0.3 µM	–	107	–	–	–
[1], 1 µM	–	107	–	–	–
[1], 3 µM	–	127	–	–	–
[7], 0.1 µM	105	–	–	–	–
[7], 0.3 µM	88	–	–	–	–
[7], 1 µM	89	–	–	–	–
[7], 3 µM	44	–	–	–	–
[9], 0.1 µM	–	–	–	-0.1	–
[9], 0.3 µM	–	–	–	0.28	–
[9], 1 µM	–	–	–	0.36	–
[9], 3 µM	–	–	–	0.76	–

drug-induced phospholipidosis [%], A549-ACE2 [8]
Details	0.3 µM	0.833333 µM	3.33333 µM	6.66667 µM	10 µM	30 µM
24 h	8.6	44.5	103	115	116	416
48 h	7.64	34.2	102	117	121	–
72 h	6.92	27.5	102	112	125	–

Details	drug sensitivity score	relative viability EC50 [µM]
Caco-2 [10]	–	2.13
Caco-2 [15]	4.6	–
Calu-3 [11]	–	2.5
Calu-3 [16]	5.7	–
HepG2 [12]	–	3.4
HepG2 [17]	3.6	–
U2OS [18]	2.8	–
Vero E6 [19]	3.2	–
